Reference: US7951829B2, “Benzimidazole modulators of VR1” (Janssen Pharmaceutica NV, priority 2006, dated 2011)

Target: T1, hVR1 (Homo sapiens, UniProt Q8NER1)
T1 construct: expressed in transfected cells; host or cells: HEK293
Experiment: Human VR1 (hVR1) Functional Assay (FLIPR intracellular calcium, capsaicin challenge)
Type: cell-based
Conditions: capsaicin 0.030 μM, HEK293 cells expressing hVR1; for inhibition at 1 µM: test concentration 1 μM

T1 sequence (Q8NER1 whole entry): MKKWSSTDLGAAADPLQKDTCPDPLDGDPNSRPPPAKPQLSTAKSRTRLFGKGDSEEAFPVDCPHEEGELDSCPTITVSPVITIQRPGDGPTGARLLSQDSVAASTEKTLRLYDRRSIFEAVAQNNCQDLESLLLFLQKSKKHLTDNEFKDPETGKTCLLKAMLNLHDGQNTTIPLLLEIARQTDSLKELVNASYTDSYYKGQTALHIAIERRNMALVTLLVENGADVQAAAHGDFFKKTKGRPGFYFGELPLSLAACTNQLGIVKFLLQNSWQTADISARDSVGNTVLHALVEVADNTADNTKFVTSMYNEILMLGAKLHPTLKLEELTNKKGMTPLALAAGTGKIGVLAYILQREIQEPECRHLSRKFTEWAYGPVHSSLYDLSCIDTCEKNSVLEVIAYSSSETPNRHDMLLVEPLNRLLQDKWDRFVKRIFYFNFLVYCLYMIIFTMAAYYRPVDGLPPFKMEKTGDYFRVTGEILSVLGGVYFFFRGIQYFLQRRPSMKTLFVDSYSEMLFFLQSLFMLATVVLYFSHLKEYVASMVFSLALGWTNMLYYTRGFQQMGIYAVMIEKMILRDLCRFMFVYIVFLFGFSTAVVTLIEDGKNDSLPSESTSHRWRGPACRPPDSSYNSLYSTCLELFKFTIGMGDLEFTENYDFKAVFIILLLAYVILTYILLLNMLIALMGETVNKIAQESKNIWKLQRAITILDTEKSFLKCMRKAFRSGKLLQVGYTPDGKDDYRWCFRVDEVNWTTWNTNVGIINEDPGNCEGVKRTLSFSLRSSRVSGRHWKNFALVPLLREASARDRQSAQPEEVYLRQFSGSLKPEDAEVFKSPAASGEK

| Compound | IC50 [nM] | inhibition at 1 µM [%] |
| --- | --- | --- |
| CNS(=O)(=O)c1ccccc1-c1ccc2[nH]c(/C=C/c3ccc(N(C)C)cc3)nc2c1 [Cpd 318, (E)-2-{2-[2-(4-dimethylamino-phenyl)-vinyl]-1H-benzimidazol-5-yl}-N-methyl-benzenesulfonamide] | 50 | 100 |
| OCc1ccccc1-c1ccc2[nH]c(C3CC3c3ccc(C(F)(F)F)cc3)nc2c1 (stereo not shown) [Cpd 474, (2-{2-[2-(4-trifluoromethyl-phenyl)-cyclopropyl]-1H-benzimidazol-5-yl}-phenyl)-methanol] | > 500 | – |
| CC(C)(O)c1ccccc1-c1ccc2[nH]c(/C=C/c3ccccc3C(F)(F)F)nc2c1 [Cpd 482, (E)-2-(2-{2-[2-(2-trifluoromethyl-phenyl)-vinyl]-1H-benzimidazol-5-yl}-phenyl)-propan-2-ol] | 13 | 100 |
| CS(=O)(=O)Nc1ccccc1-c1ccc2[nH]c(/C=C/c3ccc(C(F)(F)F)c(F)c3)nc2c1 [Cpd 417, (E)-N-(2-{2-[2-(3-fluoro-4-trifluoromethyl-phenyl)-vinyl]-1H-benzimidazol-5-yl}-phenyl)-methanesulfonamide] | 11 | 100 |
| O=S(=O)(c1ccc(/C=C/c2nc3cc(-c4ccccc4O)ccc3[nH]2)cc1)C(F)(F)F [Cpd 41, (E)-2-{2-[2-(4-trifluoromethanesulfonyl-phenyl)-vinyl]-1H-benzimidazol-5-yl}-phenol] | 280 | 90 |
| NS(=O)(=O)c1ccc(C(F)(F)F)cc1-c1ccc2[nH]c(CCc3ccc(C(F)(F)F)cc3)nc2c1 [Cpd 445, 4-trifluoromethyl-2-{2-[2-(4-trifluoromethyl-phenyl)-ethyl]-1H-benzimidazol-5-yl}-benzenesulfonamide] | 20 | 96 |
| NS(=O)(=O)c1ccccc1-c1ccc2[nH]c(CCc3cc(F)ccc3F)nc2c1 [Cpd 395, 2-{2-[2-(2,5-difluoro-phenyl)-ethyl]-1H-benzimidazol-5-yl}-benzenesulfonamide] | 15 | 99 |
| CNS(=O)(=O)c1ccccc1-c1ccc2[nH]c(/C=C/c3ccc(F)c(Br)c3)nc2c1 [Cpd 317, (E)-2-{2-[2-(3-bromo-4-fluoro-phenyl)-vinyl]-1H-benzimidazol-5-yl}-N-methyl-benzenesulfonamide] | 11 | 101 |
| CC(C)(C)c1ccc(/C=C/c2nc3cc(-c4ccccc4CO)ccc3[nH]2)cc1 [Cpd 12, (E)-(2-{2-[2-(4-tert-butyl-phenyl)-vinyl]-1H-benzimidazol-5-yl}-phenyl)-methanol] | 10 | 100 |
| CC(C)(O)c1ccccc1-c1ccc2[nH]c(C#Cc3cccc(C(F)(F)F)c3)nc2c1 [Cpd 294, 2-{2-[2-(3-trifluoromethyl-phenylethynyl)-1H-benzimidazol-5-yl]-phenyl}-propan-2-ol] | 9.1 | 101 |
| NS(=O)(=O)c1ccccc1-c1ccc2[nH]c(/C=C/c3ccccc3)nc2c1 [Cpd 426, (E)-2-(2-styryl-1H-benzimidazol-5-yl)-benzenesulfonamide] | 22 | 99 |
| CN(C)Cc1ccccc1-c1ccc2[nH]c(/C=C/c3ccc(C(F)(F)F)cc3)nc2c1 [Cpd 483, (E)-dimethyl-(2-{2-[2-(4-trifluoromethyl-phenyl)-vinyl]-1H-benzimidazol-5-yl}-benzyl)-amine] | – | 21 |
| CC(C)(O)c1ccccc1-c1ccc2[nH]c(C3CC3c3ccc(OC(F)(F)F)cc3)nc2c1 (stereo not shown) [Cpd 497, 2-(2-{2-[2-(4-trifluoromethoxy-phenyl)-cyclopropyl]-1H-benzimidazol-5-yl}-phenyl)-propan-2-ol] | 39 | 94 |
| NS(=O)(=O)c1ccccc1-c1ccc2[nH]c(/C=C/c3ccc(C(F)(F)F)cc3F)nc2c1 [Cpd 424, (E)-2-{2-[2-(2-fluoro-4-trifluoromethyl-phenyl)-vinyl]-1H-benzimidazol-5-yl}-benzenesulfonamide] | 11 | 99 |
| CNS(=O)(=O)c1ccccc1-c1ccc2[nH]c(/C=C/c3ccc(F)cc3C(F)(F)F)nc2c1 [Cpd 330, (E)-2-{2-[2-(4-fluoro-2-trifluoromethyl-phenyl)-vinyl]-1H-benzimidazol-5-yl}-N-methyl-benzenesulfonamide] | 131 | 85 |
| CNS(=O)(=O)c1ccccc1-c1ccc2[nH]c(/C=C/c3ccc(F)c(F)c3F)nc2c1 [Cpd 323, (E)-N-methyl-2-{2-[2-(2,3,4-trifluoro-phenyl)-vinyl]-1H-benzimidazol-5-yl}-benzenesulfonamide] | 40 | 97 |
| CS(=O)(=O)Nc1ccccc1-c1ccc2[nH]c(/C=C/c3ccc(C(F)(F)F)cc3F)nc2c1 [Cpd 418, (E)-N-(2-{2-[2-(2-fluoro-4-trifluoromethyl-phenyl)-vinyl]-1H-benzimidazol-5-yl}-phenyl)-methanesulfonamide] | 18 | 100 |
| CS(=O)(=O)Nc1ccccc1-c1ccc2[nH]c(/C=C/c3ccc(-c4ccccc4)cc3)nc2c1 [Cpd 475, (E)-N-{2-[2-(2-biphenyl-4-yl-vinyl)-1H-benzimidazol-5-yl]-phenyl}-methanesulfonamide] | 77 | – |

Further lines, results first:

| IC50 [nM] | inhibition at 1 µM [%] | Compound |
| --- | --- | --- |
| – | 23 | CS(=O)(=O)c1cc(Cl)ccc1CCc1nc2cc(-c3ccccc3S(N)(=O)=O)ccc2[nH]1 [Cpd 389, 2-{2-[2-(4-chloro-2-methanesulfonyl-phenyl)-ethyl]-1H-benzimidazol-5-yl}-benzenesulfonamide] |
| > 500 | – | Oc1ccccc1-c1ccc2[nH]c(C3CC3c3ccc(C(F)(F)F)cc3)nc2c1 (stereo not shown) [Cpd 472, 2-{2-[2-(4-trifluoromethyl-phenyl)-cyclopropyl]-1H-benzimidazol-5-yl}-phenol] |
| 54 | 99 | O=C(CO)c1ccccc1-c1ccc2[nH]c(/C=C/c3ccc(C(F)(F)F)cc3)nc2c1 [Cpd 311, (E)-2-hydroxy-1-(2-{2-[2-(4-trifluoromethyl-phenyl)-vinyl]-1H-benzimidazol-5-yl}-phenyl)-ethanone] |
| – | 42 | O=S(=O)(c1ccc(/C=C/c2nc3cc(-c4ccccc4C(F)(F)F)ccc3[nH]2)cc1)C(F)(F)F [Cpd 481, (E)-2-[2-(4-trifluoromethanesulfonyl-phenyl)-vinyl]-5-(2-trifluoromethyl-phenyl)-1H-benzimidazole] |
| 23 | 99 | NS(=O)(=O)c1ccccc1-c1ccc2[nH]c(CCc3ccccc3)nc2c1 [Cpd 397, 2-(2-phenethyl-1H-benzimidazol-5-yl)-benzenesulfonamide] |
| 7 | 98 | NS(=O)(=O)c1ccccc1-c1ccc2[nH]c(CCc3ccc(F)c(F)c3F)nc2c1 [Cpd 384, 2-{2-[2-(2,3,4-trifluoro-phenyl)-ethyl]-1H-benzimidazol-5-yl}-benzenesulfonamide] |
| – | 10 | CC(C)(C)c1ccc(/C=C/c2nc3cc(-c4ccc(C(N)=O)cc4)ccc3[nH]2)cc1 [Cpd 7, (E)-4-{2-[2-(4-tert-butyl-phenyl)-vinyl]-1H-benzimidazol-5-yl}-benzamide] |
| 45 | 100 | CC(O)c1ccccc1-c1ccc2[nH]c(/C=C/c3ccc(C(F)(F)F)cc3)nc2c1 (stereo not shown) [Cpd 16, (E)-1-(2-{2-[2-(4-trifluoromethyl-phenyl)-vinyl]-1H-benzimidazol-5-yl}-phenyl)-ethanol] |
| 8 | 95 | NS(=O)(=O)c1ccccc1-c1ccc2[nH]c(CCc3cccc(OC(F)(F)F)c3)nc2c1 [Cpd 391, 2-{2-[2-(3-trifluoromethoxy-phenyl)-ethyl]-1H-benzimidazol-5-yl}-benzenesulfonamide] |
| – | 28 | CC(C)(C)c1ccc(/C=C/c2nc3cc(-c4ccccc4F)c(C(F)(F)F)cc3[nH]2)cc1 [Cpd 52, (E)-2-[2-(4-tert-butyl-phenyl)-vinyl]-5-(2-fluoro-phenyl)-6-trifluoromethyl-1H-benzimidazole] |
| 157 | 89 | CNS(=O)(=O)c1ccccc1-c1ccc2[nH]c(/C=C/c3cc(F)ccc3F)nc2c1 [Cpd 326, (E)-2-{2-[2-(2,5-difluoro-phenyl)-vinyl]-1H-benzimidazol-5-yl}-N-methyl-benzenesulfonamide] |
| 22 | 95 | NS(=O)(=O)c1ccccc1-c1ccc2[nH]c([C@H]3C[C@@H]3c3ccc(C(F)(F)F)cc3)nc2c1 [Cpd 504, 2-{2-[(1S,2S)-2-(4-trifluoromethyl-phenyl)-cyclopropyl]-1H-benzimidazol-5-yl}-benzenesulfonamide] |
| – | 22 | CNS(=O)(=O)c1ccccc1-c1ccc2[nH]c(/C=C/c3ccc(C(=O)O)cc3)nc2c1 [Cpd 453, (E)-4-{2-[5-(2-methylsulfamoyl-phenyl)-1H-benzimidazol-2-yl]-vinyl}-benzoic acid] |
| 24 | 98 | CNS(=O)(=O)c1ccccc1-c1ccc2[nH]c(/C=C/c3ccc(S(=O)(=O)C(F)(F)F)cc3)nc2c1 [Cpd 342, (E)-N-methyl-2-{2-[2-(4-trifluoromethanesulfonyl-phenyl)-vinyl]-1H-benzimidazol-5-yl}-benzenesulfonamide] |
| 77 | – | NS(=O)(=O)NCc1ccccc1-c1ccc2[nH]c(/C=C/c3ccc(C(F)(F)F)cc3)nc2c1 [Cpd 491, (E)-5-(2-aminosulfonylamino-methylphenyl)-2-[2-(4-trifluoromethyl-phenyl)-vinyl]-1H-benzimidazole] |
| – | 33 | CC(C)(C)c1ccc(/C=C/c2nc3cc(-c4ccccc4O)c(C(F)(F)F)cc3[nH]2)cc1 [Cpd 48, (E)-2-{2-[2-(4-tert-butyl-phenyl)-vinyl]-6-trifluoromethyl-1H-benzimidazol-5-yl}-phenol] |
| – | 41 | CC(=O)Nc1ccccc1-c1cc2nc(/C=C/c3ccc(C(F)(F)F)cc3)[nH]c2cc1F [Cpd 64, (E)-N-(2-{6-fluoro-2-[2-(4-trifluoromethyl-phenyl)-vinyl]-1H-benzimidazol-5-yl}-phenyl)-acetamide] |
